Patent US9073874B2, “Cyclic N,N′-diarylthioureas and N,N′-diarylureas-androgen receptor antagonists, anticancer agent, method for preparation and use thereof” (priority 2010, dated 2015)

What was measured:
[1] = molecular target: D2S (h) (Homo sapiens, UniProt P14416); test: competitive radioligand binding assay, D2S (h) (antagonist radioligand)
[2] = molecular target: A3 (h) (Homo sapiens, UniProt P0DMS8); test: competitive radioligand binding assay, A3 (h) (agonist radioligand)
[3] = molecular target: norepinephrine transporter (h) (Homo sapiens, UniProt P23975); test: competitive radioligand binding assay, norepinephrine transporter (h) (antagonist radioligand)
[4] = molecular target: ETA (h) (Homo sapiens, UniProt P25101); test: competitive radioligand binding assay, ETA (h) (agonist radioligand)
Chain of ETA (h) (P25101 21-427): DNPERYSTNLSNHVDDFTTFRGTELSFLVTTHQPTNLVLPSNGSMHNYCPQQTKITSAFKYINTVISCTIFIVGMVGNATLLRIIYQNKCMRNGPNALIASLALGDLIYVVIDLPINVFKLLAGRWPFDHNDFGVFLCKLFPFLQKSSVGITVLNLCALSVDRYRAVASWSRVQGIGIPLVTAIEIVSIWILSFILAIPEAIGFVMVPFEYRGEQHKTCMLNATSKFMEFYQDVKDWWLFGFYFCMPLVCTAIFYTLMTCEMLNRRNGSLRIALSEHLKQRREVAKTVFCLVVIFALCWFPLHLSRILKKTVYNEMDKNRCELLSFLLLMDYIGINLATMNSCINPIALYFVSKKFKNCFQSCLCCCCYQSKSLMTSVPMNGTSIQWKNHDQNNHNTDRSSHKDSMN

Chain of D2S (h) (P14416 1-414 isoform P14416-2): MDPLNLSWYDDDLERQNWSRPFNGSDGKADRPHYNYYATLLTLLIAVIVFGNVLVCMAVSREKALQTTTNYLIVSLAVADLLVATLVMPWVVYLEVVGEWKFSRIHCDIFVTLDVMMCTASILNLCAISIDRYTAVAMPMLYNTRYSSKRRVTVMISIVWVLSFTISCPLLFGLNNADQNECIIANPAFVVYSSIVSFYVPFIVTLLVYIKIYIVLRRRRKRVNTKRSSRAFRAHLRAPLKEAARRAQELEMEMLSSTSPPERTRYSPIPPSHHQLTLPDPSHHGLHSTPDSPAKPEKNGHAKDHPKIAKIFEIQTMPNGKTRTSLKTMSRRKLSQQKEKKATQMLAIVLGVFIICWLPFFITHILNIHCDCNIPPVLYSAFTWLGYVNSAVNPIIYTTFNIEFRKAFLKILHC
Chain of norepinephrine transporter (h) (P23975 whole entry): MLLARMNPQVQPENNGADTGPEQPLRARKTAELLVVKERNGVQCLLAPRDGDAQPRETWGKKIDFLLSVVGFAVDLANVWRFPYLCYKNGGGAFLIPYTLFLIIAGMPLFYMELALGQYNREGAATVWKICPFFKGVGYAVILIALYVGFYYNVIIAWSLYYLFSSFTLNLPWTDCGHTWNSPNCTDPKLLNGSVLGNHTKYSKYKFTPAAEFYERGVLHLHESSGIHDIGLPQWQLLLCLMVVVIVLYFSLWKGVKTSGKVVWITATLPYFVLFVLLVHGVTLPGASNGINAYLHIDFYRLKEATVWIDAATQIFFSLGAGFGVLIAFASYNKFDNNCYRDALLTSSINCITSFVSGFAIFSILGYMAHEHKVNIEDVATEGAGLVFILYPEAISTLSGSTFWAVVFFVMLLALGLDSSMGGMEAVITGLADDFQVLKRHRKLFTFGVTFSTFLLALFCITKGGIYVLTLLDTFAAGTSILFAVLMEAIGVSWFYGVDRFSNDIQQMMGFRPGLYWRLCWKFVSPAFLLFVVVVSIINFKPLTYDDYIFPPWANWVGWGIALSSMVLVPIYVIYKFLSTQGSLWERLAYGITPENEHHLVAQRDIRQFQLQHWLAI
Chain of A3 (h) (P0DMS8 whole entry): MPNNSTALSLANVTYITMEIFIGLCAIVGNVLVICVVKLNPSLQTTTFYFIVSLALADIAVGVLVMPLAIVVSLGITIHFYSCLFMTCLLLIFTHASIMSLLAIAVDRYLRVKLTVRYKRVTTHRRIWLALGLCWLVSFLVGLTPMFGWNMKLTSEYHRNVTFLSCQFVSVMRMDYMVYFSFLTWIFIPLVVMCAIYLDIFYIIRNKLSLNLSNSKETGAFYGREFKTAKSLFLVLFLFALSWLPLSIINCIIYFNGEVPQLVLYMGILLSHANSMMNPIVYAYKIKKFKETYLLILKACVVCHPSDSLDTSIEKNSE

CNC(=O)c1ccc(N2C(=S)N(c3ccc(C#N)c(C(F)(F)F)c3)C(=O)[C@]23CCOC3)cc1F [(R)-1, 4-[(R)-3-(4-cyano-3-trifluoromethyl-phenyl)-4-oxo-2-thioxo-7-oxa-1,3-diaza-spiro[4.4]non-1-yl]-2-fluoro-N-methyl-benzamide]
inhibition at 10 µM [1]: -8.1% | inhibition at 10 µM [2]: -4.9% | inhibition at 10 µM [3]: -1.1% | inhibition at 10 µM [4]: -2.5%
